Results published in patent publication US20240024494A1, “SMALL-MOLECULE CONJUGATE AND USE THEREOF” (SHANGHAI MEWSGEN BIOTECHNOLOGY CO., LTD, priority 2020, published 2024).
Read-outs that look alike come from different tables or passages of the source.

Experiments:
[1] = system: tumor cell strains (colon cancer, pancreatic cancer, esophageal squamous carcinoma, gastric cancer, glioma); assay: Summary of in-vitro proliferation inhibition on tumor cell strains (Examples 19-21); format: cell-based, human
Protocol: (§1) A part of the compounds prepared in the examples of the present disclosure were subjected to a tumor cell proliferation inhibition test by using a CCK-8 method. A cell line HCT116 (human colon carcinoma cells) and SW1990 (human pancreatic carcinoma cells) were purchased from Shanghai Meixuan Technology Co., Ltd. Samples (a part of the compounds prepared in the examples) were dissolved in DMSO (Merck), prepared into a concentration of 10 mM, and finally triply diluted in DMEM or McCoy's 5A 1640 medium to 8 concentration gradients. A cell culture solution was collected when a cell culture met a test requirement, 10 μL of the cell culture solution was uniformly coated on a cell counting plate, cells were counted for 3 times under a microscope, and a cell density was calculated by taking an average value; and a 96-well plate (Corning, #3599) was taken, 200 μL of the cell culture solution was added into each well for cell inoculation at a cell concentration of 6×10^3 cells per well, and the inoculated 96-well plate was incubated in a cell incubator containing 5% CO2 at 37° C. for 24 h. An old culture medium was removed by suction, 200 μL of the triply diluted sample DMEM or McCoy's 5A 1640 medium at an initial concentration of 10 μmol/L was added to each well, the DMSO content was controlled to be 1%, three duplicate wells were set, PBS was used as a blank control, and the plate was incubated in the incubator for 72 h. The original DMEM or McCoy's 5A 1640 medium in the 96-well plate and a PBS buffer in a final row were sucked out, a prepared CCK-8 solution (90% DMEM or McCoy's 5A 1640 medium+10% CCK-8) was added, the mixture was incubated in an incubator, and an absorbance was read by using a Biotek microplate reader. Cell growth inhibition rate IC %=(blank control well OD value−administration well OD value)/blank control well OD value×100%.
In-vitro activity test: 100 μL of a cell suspension at a concentration of 4-5×10^4/mL was added to each well of a 96-well plate, and placed in a 5% CO2 incubator at 37° C. After 24 h, a sample solution was added at 10 μL/well, double duplicate wells were set, and a reaction was performed at 37° C. with 5% CO2 for 72 h. 20 μL of 5 mg/ml of an MTT solution was added into each well and reacted for 4 h, a dissolving solution was added at 100 μL/well, the mixture was placed in an incubator, and after dissolution, an OD value at 570 nm was measured with a full-wavelength multifunctional microplate reader. An inhibition rate (IR) and a median inhibitory concentration (IC50) were calculated by using an Excel software.
A part of the compounds prepared in the examples of the present disclosure were subjected to a tumor cell proliferation inhibition test by using a CCK-8 method. Cell lines HCT116 (human colon cancer cells), MGC803 (human gastric cancer cells), and MIA PACA-2 (human pancreatic cancer cells) were purchased from Shanghai Meixuan Technology Co., Ltd. Samples (a part of the compounds prepared in the examples) were dissolved in DMSO (Merck), prepared into a concentration of 10 mM, and finally triply diluted in DMEM or McCoy's 5A 1640 medium to 8 concentration gradients. A cell culture solution was collected when a cell culture met a test requirement, 10 μL of the cell culture solution was uniformly coated on a cell counting plate, cells were counted for 3 times under a microscope, and a cell density was calculated by taking an average value; and a 96-well plate (Corning, #3599) was taken, 200 μL of the cell culture solution was added into each well for cell inoculation at a cell concentration of 6×10^3 cells per well, and the inoculated 96-well plate was incubated in a cell incubator containing 5% CO2 at 37° C. for 24 h. […]

[2] = system: HCT116 (human colon cancer cells); assay: Tumor cell proliferation inhibition test, CCK-8 method (Example 21); format: cell-based
Protocol: as §1, with “method. Cell lines” for “method. A cell line”, “colon cancer cells), MGC803 (human gastric cancer cells),” for “colon carcinoma cells)”, “and MIA PACA-2” for “and SW1990”, “pancreatic cancer” for “pancreatic carcinoma”

[3] = system: MIA PACA-2 (human pancreatic cancer cells); assay: as above; format: cell-based
Protocol: as §1, with “method. Cell lines” for “method. A cell line”, “colon cancer cells), MGC803 (human gastric cancer cells),” for “colon carcinoma cells)”, “and MIA PACA-2” for “and SW1990”, “pancreatic cancer” for “pancreatic carcinoma”

[4] = system: MGC803 (human gastric cancer cells); assay: as above; format: cell-based
Protocol: as §1, with “method. Cell lines” for “method. A cell line”, “colon cancer cells), MGC803 (human gastric cancer cells),” for “colon carcinoma cells)”, “and MIA PACA-2” for “and SW1990”, “pancreatic cancer” for “pancreatic carcinoma”

[5] = CCK-8, 72 h, Table 3, read-out: IC50 HCT116
[6] = CCK-8, 72 h, Table 3, read-out: IC50 MIA PACA-2
[7] = CCK-8, 72 h, Table 3, read-out: IC50 MGC803

COc1cc(C(=O)NCCOCCOCCOCCC(=O)N[C@H](C(=O)N[C@@H](CCCNC(N)=O)C(=O)Nc2ccc(COC(=O)N3CCN(C(=O)O[C@H]4CC[C@@]5(C)[C@H](CC[C@@H]6[C@@H]5[C@H](O)C(=O)[C@]5(C)C(c7ccc(=O)oc7)CC[C@]65O)C4)CC3)cc2)C(C)C)ccc1NC(=O)[C@@H]1N[C@@H](CC(C)(C)C)[C@](C#N)(c2ccc(Cl)cc2F)[C@H]1c1cccc(Cl)c1F (some centres unmarked) [Compound I-2]
Proliferation inhibition activities IC50 on most tumor cell strains (in words) [1]: between several to hundreds of nanomoles | IC50 [2, 5]: 26 nM | IC50 [3, 6]: 212 nM | IC50 [4, 7]: 54 nM

COc1cc(C(=O)NCCOCCOCCOCCC(=O)N[C@H](C(=O)N[C@@H](CCCNC(N)=O)C(=O)Nc2ccc(COC(=O)N3CCC(NC(=O)O[C@H]4CC[C@]5(C)C6CC[C@]7(C)[C@@H](c8ccc(=O)oc8)CC[C@]7(O)C6CC[C@@H]5C4)CC3)cc2)C(C)C)ccc1NC(=O)[C@@H]1N[C@@H](CC(C)(C)C)[C@](C#N)(c2ccc(Cl)cc2F)[C@H]1c1cccc(Cl)c1F (some centres unmarked) [Compound I-5]
IC50 [2, 5]: 236 nM | IC50 [3, 6]: 442 nM | IC50 [4, 7]: 116 nM

COc1cc(C(=O)NCCOCCOCCOCCOCCOCCOCCC(=O)N[C@@H](C(=O)N[C@@H](CCCNC(N)=O)C(=O)Nc2ccc(COC(=O)N3CCC(NC(=O)O[C@H]4CC[C@]5(C)C6CC[C@]7(C)C(c8ccc(=O)oc8)CC[C@]7(O)C6CC[C@@H]5C4)CC3)cc2)C(C)C)ccc1NC(=O)[C@@H]1N[C@@H](CC(C)(C)C)[C@](C#N)(c2ccc(Cl)cc2F)[C@H]1c1cccc(Cl)c1F (some centres unmarked) [Compound I-7]
IC50 [2, 5]: 1290 nM | IC50 [3, 6]: 3530 nM | IC50 [4, 7]: 292 nM

COc1cc(C(=O)NCCOCCOCCOCCOCCOCCOCCC(=O)N[C@@H](C(=O)N[C@@H](CCCNC(N)=O)C(=O)Nc2ccc(COC(=O)N3CCN(C(=O)O[C@H]4CC[C@@]5(C)[C@H](CC[C@@H]6[C@@H]5[C@H](O)C(=O)[C@]5(C)C(c7ccc(=O)oc7)CC[C@]65O)C4)CC3)cc2)C(C)C)ccc1NC(=O)[C@@H]1N[C@@H](CC(C)(C)C)[C@](C#N)(c2ccc(Cl)cc2F)[C@H]1c1cccc(Cl)c1F (some centres unmarked) [Compound I-8]
Proliferation inhibition activities IC50 on most tumor cell strains (in words) [1]: between several to hundreds of nanomoles | IC50 [2, 5]: 12 nM | IC50 [3, 6]: 87 nM | IC50 [4, 7]: 12 nM

COc1cc(C(=O)NCCOCCOCCOCCOCCC(=O)N[C@H](C(=O)N[C@@H](C)C(=O)Nc2ccc(COC(=O)N3CCN(C(=O)O[C@H]4CC[C@@]5(C)[C@H](CC[C@@H]6[C@@H]5[C@H](O)C(=O)[C@]5(C)[C@@H](c7ccc(=O)oc7)CC[C@]65O)C4)CC3)cc2)C(C)C)ccc1NC(=O)[C@@H]1N[C@@H](CC(C)(C)C)[C@](C#N)(c2ccc(Cl)cc2F)[C@H]1c1cccc(Cl)c1F [Compound I-10]
IC50 [2, 5]: 395 nM | IC50 [3, 6]: 443 nM | IC50 [4, 7]: 307 nM

COc1cc(C(=O)NCCOCCOCCOCCOCCC(=O)N[C@H](C(=O)N[C@@H](C)C(=O)Nc2ccc(COC(=O)N3CCC(NC(=O)O[C@H]4CC[C@]5(C)C6CC[C@]7(C)[C@@H](c8ccc(=O)oc8)CC[C@]7(O)C6CC[C@@H]5C4)CC3)cc2)C(C)C)ccc1NC(=O)[C@@H]1N[C@@H](CC(C)(C)C)[C@](C#N)(c2ccc(Cl)cc2F)[C@H]1c1cccc(Cl)c1F (some centres unmarked) [Compound I-11]
Proliferation inhibition activities IC50 on most tumor cell strains (in words) [1]: between several to hundreds of nanomoles | IC50 [2, 5]: 27 nM | IC50 [3, 6]: 68 nM | IC50 [4, 7]: 10 nM

COc1cc(C(=O)NCCOCCOCCOCCOCCC(=O)N[C@@H](CCSC)C(=O)N[C@@H](CCCNC(N)=O)C(=O)Nc2ccc(COC(=O)O[C@@H](C(=O)O[C@H]3C[C@@]4(O)[C@@H](OC(=O)c5ccccc5)C5[C@](C)(C(=O)[C@H](OC(C)=O)C(=C3C)C4(C)C)[C@@H](O)C[C@H]3OC[C@@]53OC(C)=O)[C@@H](NC(=O)c3ccccc3)c3ccccc3)cc2)ccc1NC(=O)[C@@H]1N[C@@H](CC(C)(C)C)[C@](C#N)(c2ccc(Cl)cc2F)[C@H]1c1cccc(Cl)c1F (some centres unmarked) [Compound I-12]
IC50 ([2]; 72 h): 5260 nM | IC50 ([3]; 72 h): 542 nM | IC50 ([4]; 72 h): 626 nM

COc1cc(C(=O)NCCOCCOCCOCCOCCC(=O)N[C@@H](CCSC)C(=O)N[C@@H](CCCNC(N)=O)C(=O)Nc2ccc(COC(=O)N3CCN(C(=O)O[C@H]4CC[C@@]5(C)[C@H](CC[C@@H]6[C@@H]5[C@H](O)C(=O)[C@]5(C)[C@@H](c7ccc(=O)oc7)CC[C@]65O)C4)CC3)cc2)ccc1NC(=O)[C@@H]1N[C@@H](CC(C)(C)C)[C@](C#N)(c2ccc(Cl)cc2F)[C@H]1c1cccc(Cl)c1F [Compound I-13]
Proliferation inhibition activities IC50 on most tumor cell strains (in words) [1]: between several to hundreds of nanomoles | IC50 [2, 5]: 14 nM | IC50 [3, 6]: 24 nM | IC50 [4, 7]: 14 nM

COc1cc(C(=O)NCCOCCOCCOCCOCCC(=O)N[C@@H](CCSC)C(=O)N[C@@H](CCCNC(N)=O)C(=O)Nc2ccc(COC(=O)N3CCC(NC(=O)O[C@H]4CC[C@]5(C)C6CC[C@]7(C)[C@@H](c8ccc(=O)oc8)CC[C@]7(O)C6CC[C@@H]5C4)CC3)cc2)ccc1NC(=O)[C@@H]1N[C@@H](CC(C)(C)C)[C@](C#N)(c2ccc(Cl)cc2F)[C@H]1c1cccc(Cl)c1F (some centres unmarked) [Compound I-14]
Proliferation inhibition activities IC50 on most tumor cell strains (in words) [1]: between several to hundreds of nanomoles | IC50 [2, 5]: 483 nM | IC50 [3, 6]: 670 nM | IC50 [4, 7]: 249 nM
